From the NIST ThermoML archive (doi:10.1021/je5000296)
Numbers after ± are expanded uncertainties.

Conditions: Liquid, Ebulliometric method (Recirculating still)

CCCCO [butan-1-ol]
vapor or sublimation pressure (390.48 K): 101.3 ± 0.91 kPa

CCCCOC(C)=O [butyl ethanoate]
vapor or sublimation pressure (399.15 K): 101.3 ± 0.91 kPa
